Structures are written as SMILES.

Results on 9 molecules are retold here after PMC5340791, “New approaches for the reliable in vitro assessment of binding affinity based on high-resolution real-time data acquisition of radioligand-receptor binding kinetics” (EJNMMI Research, 2017).

A short description of data set [1]: HPLC-based measurement of the logarithm of the octanol-water partition coefficient (HPLClogD7.4). The class given is physicochemical. The settings on record: pH 7.4, HPLC-based assay; mean ± SEM of three independent experiments. The procedure: The logarithm of the octanol-water partition coefficient of the A3R antagonists were determined at pH 7.4 by high-performance liquid chromatography (HPLC)-based assay (HPLClogD^7.4) modified from Donovan and Pescatore. Briefly, a mixture of two internal standards (toluene and triphenylene) with known logD values and defined retention times (k’) have been used. A3R antagonists were dissolved in methanol and injected onto a short polymeric ODP-50 column (20 × 4.0 mm, 5 μm pore size, Supelco, Bellefonte, PA, USA). A linear gradient from 10% methanol/90% phosphate buffer (25 mM, pH 7.4) to 100% methanol within 9.4 min at a flow rate of 1.5 mL/min were applied. Measurement and detection of the three retention times of toluene, triphenylene and A3R antagonists were performed at 260 and 285 nm. Between consecutive HPLC runs, 5 min for re-equilibration of the HPLC column were allowed. The logD values of the dedicated compounds were determined using the known logD values of triphenylene and toluene and the retention time of triphenylene, toluene and the unknown compounds according to the following formula:1 logPUnknown=logPtol−logPtriph*tUnknown+ttol*logPtriph−ttriph*logPtol/ttol−ttriph where “log P Unknown” is the logD value of the test compound and “t Unknown” the corresponding measured retention time of the dedicated substance. The logD values for the internal standards are abbreviated as “log P tol” (toluene) and “log P triph” (triphenylene), respectively. Measured retention times are indicated as “t tol” for toluene and “t triph” for triphenylene.

Data set [2] addresses T1, human adenosine A3 receptor (CHO-K1-hA3R cells) (Homo sapiens, UniProt P0DMS8).
T1 construct: expressed in transfected cells
T1 sequence (P0DMS8 1-318): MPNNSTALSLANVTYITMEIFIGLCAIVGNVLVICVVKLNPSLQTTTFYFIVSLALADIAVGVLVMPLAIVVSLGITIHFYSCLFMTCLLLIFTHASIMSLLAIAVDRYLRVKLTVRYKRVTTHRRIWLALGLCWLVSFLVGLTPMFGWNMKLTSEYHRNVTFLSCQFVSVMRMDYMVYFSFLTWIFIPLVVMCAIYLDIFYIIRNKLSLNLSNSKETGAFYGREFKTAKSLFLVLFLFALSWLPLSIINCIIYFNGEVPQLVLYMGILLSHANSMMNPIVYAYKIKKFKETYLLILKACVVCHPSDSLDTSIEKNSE
As to the kind of experiment: Competitive real-time cell-binding studies (LigandTracer), displacement of [125I]-AB-MECA. The settings on record: 0.7 nM [125I]-AB-MECA, ambient temperature, Cheng-Prusoff, mean ± SEM, three independent experiments. The procedure:
The measurements were made according to the assay protocol as previously described above. […] The experiments were initiated with a baseline measurement (10–15 min). […] Inhibition of the radioligand was performed by adding different concentration series (1–500 nM) of unlabelled compounds (A3R antagonists) each after visual binding equilibrium. At least four different concentrations of competitor, spanning three orders of magnitude adjusted appropriately for the IC50 of each compound, were used. Unspecific binding was determined in the presence of a high concentration (0.5–100 μM) of the non-labelled competitor substance. The observed association phase of the radioligand and the dissociation phase of each consecutive concentration of the competitor substance were monitored in real-time until visual binding equilibrium was reached. All non-labelled compounds were initially dissolved in DMSO and diluted with deionized water to the final concentration, where the amount of DMSO never exceeded 5%. Cytophysiological conditions and cell attachment were examined continuously during the whole course of the experiment with the perimeter trace of the LigandTracer® software (version 1.0.1).
Raw data from the LigandTracer® measurements were analysed in GraphPad Prism 6.0 (GraphPad Software, Inc., San Diego, CA). Experiments were conducted at least as a triplicate with different batches of radioligand and biological target material to avoid systematic bias and to assure statistical certainty. […] Transformed data was analysed using “one-phase association” curve fitting algorithm as outlined in the following equation:2 Y=Y0+Plateau−Y0*1−e^−k*x where “x” is a given time and “Y” corresponds to the amount of radioligand binding for a dedicated time point. “Y 0” is the initial value of “Y” at the beginning of radioligand incubation and “plateau” indicates the maximum amount of the bound radioligand after equilibrium. “k” is the rate constant expressed in reciprocal units of “x”.
Transformed data were analysed by using “dissociation—one-phase exponential decay” curve fit as follows:3 Y=Y0−NS*e^−k*x+NS where “x” is a given time and “Y” corresponds to the amount of bound radioligand for a dedicated time point. “Y 0” is the initial value of “Y” at the beginning of each dissociation phase and “NS” indicates the steady state of radioligand binding in the presence of dedicated cold competitor after infinite time. “k” is the rate constant expressed in reciprocal units of “x”.
Equilibrium binding data determined in Eqs. (2) and (3) served as input parameters for the calculation of the IC50 using “log(inhibitor) vs. response—variable slope (four parameters)” nonlinear regression algorithm as described below:4 Y=Bottom+Top−Bottom/1+10^logIC50−C*HillSlope where “C” is the logarithm of the competitor concentration and “Y” reflects the dedicated amount of bound radioligand at equilibrium obtained from Eq. (3). “Top” indicates the maximum amount of radioligand binding (without any competitor) whereas the corresponding value is derived from Eq. (2). “Bottom” expresses the amount of unspecific radioligand binding in presence of a very high concentration of competitor. The dedicated value is determined by Eq. (3) and corresponds to the “NS” value of the last inhibitor concentration. The “HillSlope” reflects the slope factor, which indicates the steepness of the resulting inhibition curve. […] The resulting IC50 was converted into the K i using Cheng-Prusoff Eq. (3).
On the technique in general: In a radioligand displacement assay an active substance lowers the binding of a labelled ligand.

The target of data set [3] is human A3R. The settings on record: traditional saturation binding assays, membranes from human A3R-transfected HEK-293 cells; ref [29]; read-out: K d (Reported affinity); cited from earlier work.
Data set [4] has as its target human A3R. Set-up: method as in PMID 11462807, PMID 8190112, PMID 8576921. The settings on record: traditional binding assays, membranes from human A3R-transfected HEK-293 cells; ref [30], [32], [33]; read-out: Ki Literature; cited from earlier work.

For `CCOC(=O)c1c(-c2ccccc2)nc(CC)c(C(=O)SCCF)c1CC` [FE@SUPPY:2, 5-ethyl 2,4-diethyl-3-((2-fluoroethyl)sulfanylcarbonyl)-6-phenylpyridine-5-carboxylate], the chromatographic logD (usually a lipophilicity value derived from retention on a column) in data set [1] amounted to 4.05 ± 0.36. Further, in data set [2], the affinity corresponds to a Ki of 8.24 ± 2.35 nM.

In data set [1], `CCOC(=O)C1=C(C)NC(c2ccccc2)=C(C(=O)OCc2ccccc2)C1C#Cc1ccccc1` (centres unmarked) [MRS1191, 1,4-dihydro-2-methyl-6-phenyl-4-(phenylethynyl)-3,5-pyridinedicarboxylic acid, 3-ethyl 5-(phenylmethyl) ester, reference compound] registered a chromatographic logD of 4.83 ± 0.01.

Consider `CNC(=O)[C@H]1O[C@@H](n2cnc3c(NCc4ccc(N)c(I)c4)ncnc32)[C@H](O)[C@@H]1O` [[^125I]-AB-MECA, [^125I]-4-aminobenzyl-5′-N-methylcarboxamideoadenosine], for which the Kd on human A3R [3] is 0.59 ± 0.02 nM.

In turn, `CCCOC(=O)c1c(-c2ccccc2)nc(CC)c(C(=O)SCC)c1CCC` [MRS1523, 2,3-ethyl-4,5-dipropyl-6-phenylpyridine-3-thiocarboxylate-5-carboxylate, reference compound] gave a chromatographic logD in data set [1] of 4.85 ± 0.01. Moreover, the Ki (usually the dissociation constant of the complex between target and ligand, obtained from inhibition or displacement) on human A3R [4] is 18.9 ± 4.1 nM; in data set [2] it was 17.8 ± 2.88 nM.

In turn, `CCSC(=O)c1c(CC)nc(-c2ccccc2)c(C(=O)O)c1CC` [DFE@SUPPY, 4,6-diethyl-5-[(ethylsulfanyl)carbonyl]-2-phenylpyridine-3-carboxylic acid] returned a chromatographic logD in data set [1] of 0.97 ± 0.37. In data set [2], this molecule showed a Ki of 114 ± 16.9 nM.

For `CCSC(=O)c1c(CC)nc(-c2ccccc2)c(C(=O)OCCF)c1CC` [FE@SUPPY, 5-(2-fluoroethyl)2,4-diethyl-3-(ethylsulfanylcarbonyl)-6-phenylpyridine-5-carboxylate], the chromatographic logD in data set [1] came to 4.04 ± 0.36. This molecule returned a Ki in data set [2] of 8.51 ± 1.46 nM.

`CCc1nc(-c2ccccc2)c(C(=O)OC)c(CC)c1C(=O)SC` [(Me)^2@SUPPY, methyl 4,6-diethyl-5-[(methylsulfanyl)carbonyl]-2-phenylpyridine-3-carboxylate] displayed a chromatographic logD in data set [1] of 3.66 ± 0.33. In addition, in data set [2], the Ki is 46.1 ± 6.66 nM.

`CCc1nc(-c2ccccc2)c(C(=O)OC)c(CC)c1C(=O)SCCF` [FEMe@SUPPY:2, methyl 4,6-diethyl-5-{[(2-fluoroethyl)sulfanyl]carbonyl}-2-phenylpyridine-3-carboxylate] registered a chromatographic logD in data set [1] of 3.83 ± 0.36. In data set [2], the Ki came out at 41.2 ± 3.91 nM.

Regarding `CCc1nc(-c2ccccc2)c(C(=O)OCCF)c(CC)c1C(=O)SCCF` [(FE)^2@SUPPY, 2-fluoroethyl 4,6-diethyl-5-{[(2-fluoroethyl)sulfanyl]carbonyl}-2-phenylpyridine-3-carboxylate], the chromatographic logD in data set [1] came out at 3.95 ± 0.38. The same molecule had a Ki in data set [2] of 8.05 ± 1.77 nM.
